Data from ChEMBL document CHEMBL1201862, “PubChem BioAssay data set” (2004).
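Protocol summary: plate cells (96-well), add compound at 5 concentrations, incubate 48 h, interpolate endpoints linearly. The concentration for 50% growth inhibition is given as GI50.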 Active and inactive are the calls of the source. Cut-off read from the data, not from the text of the source: active = GI50 up to about 1.1 µM and inactive = higher. Where a SMILES comes first, the peptide text is derived from it. The star is where a group is joined. Cbz = O=C(OCc1ccccc1)*

Columns and labels:
Assay in all cases: NCI-60 cell line screen, 48 h
U-251 = tested on: U-251
Malme-3M = tested on: Malme-3M
CAKI-1 = tested on: CAKI-1
786-0 = tested on: 786-0
SK-OV-3 = tested on: SK-OV-3
COLO 205 = tested on: COLO 205
A549 = tested on: A549
HCT-116 = tested on: HCT-116
LOX IMVI = tested on: LOX IMVI
Hs-578T = tested on: Hs-578T
MDA-MB-231 = tested on: MDA-MB-231
UACC-62 = tested on: UACC-62
NCI-H460 = tested on: NCI-H460
MOLT-4 = tested on: MOLT-4
SW-620 = tested on: SW-620
SNB-19 = tested on: SNB-19
MDA-MB-435 = tested on: MDA-MB-435
HCT-15 = tested on: HCT-15
UACC-257 = tested on: UACC-257
SF-539 = tested on: SF-539

Row | Structure (SMILES) | GI50 (U-251) | GI50 (Malme-3M) | GI50 (CAKI-1) | GI50 (786-0) | GI50 (SK-OV-3) | GI50 (COLO 205) | GI50 (A549) | GI50 (HCT-116) | GI50 (LOX IMVI) | GI50 (Hs-578T) | GI50 (MDA-MB-231) | GI50 (UACC-62) | GI50 (NCI-H460) | GI50 (MOLT-4) | GI50 (SW-620) | GI50 (SNB-19) | GI50 (MDA-MB-435) | GI50 (HCT-15) | GI50 (UACC-257) | GI50 (SF-539)
1 | COC(=O)C(CC(C)C)NC(=O)C(CCCNC(=N)N)NC(=O)OCc1ccccc1 (stereo not drawn) (Cbz-Arg-Leu-OMe; configuration not given here) | > 100 µM (inactive) | > 100 µM (inactive) | > 100 µM (inactive) | > 100 µM (inactive) | > 100 µM (inactive) | > 100 µM (inactive) | > 100 µM (inactive) | > 100 µM (inactive) | > 100 µM (inactive) | > 100 µM (inactive) | > 100 µM (inactive) | > 100 µM (inactive) | > 100 µM (inactive) | > 100 µM (inactive) | > 100 µM (inactive) | > 100 µM (inactive) | > 100 µM (inactive) | > 100 µM | – | –
2 | CCOC(=O)COc1ccc2c(C)cc(=O)oc2c1 | > 100 µM (inactive) | > 100 µM (inactive) | > 100 µM (inactive) | > 100 µM (inactive) | – | > 100 µM (inactive) | > 100 µM (inactive) | > 100 µM (inactive) | > 100 µM (inactive) | > 100 µM (inactive) | > 100 µM (inactive) | > 100 µM (inactive) | 45.8 µM (inactive) | > 100 µM (inactive) | > 100 µM (inactive) | > 100 µM (inactive) | > 100 µM (inactive) | > 100 µM | > 100 µM (inactive) | > 100 µM (inactive)
3 | O=C(Nc1cccc(C(F)(F)F)c1)c1cc(Br)cc(Br)c1O [FLUOROSALAN] | 3.79 µM (inactive) | – | 2.3 µM (inactive) | 3.63 µM (inactive) | 2.81 µM (inactive) | 3.18 µM (inactive) | 2.83 µM (inactive) | 2.32 µM (inactive) | 2.06 µM (inactive) | 3.4 µM (inactive) | 4.34 µM (inactive) | 3.56 µM (inactive) | 3.02 µM (inactive) | 3.15 µM (inactive) | 3.9 µM (inactive) | 2.77 µM (inactive) | 3.2 µM (inactive) | 4.5 µM | 2.52 µM (inactive) | 3.55 µM (inactive)
4 | CCCCNN | > 100 µM (inactive) | > 100 µM (inactive) | > 100 µM (inactive) | > 100 µM (inactive) | > 100 µM (inactive) | > 100 µM (inactive) | > 100 µM (inactive) | > 100 µM (inactive) | > 100 µM (inactive) | > 100 µM (inactive) | > 100 µM (inactive) | > 100 µM (inactive) | – | > 100 µM (inactive) | > 100 µM (inactive) | > 100 µM (inactive) | > 100 µM (inactive) | > 100 µM | > 100 µM (inactive) | –
5 | O=c1cc(-c2ccc(O)cc2)oc2cc(O[C@@H]3O[C@H](CO)[C@@H](O)[C@H](O)[C@H]3O)cc(O)c12 [APIGETRIN] | 71 µM (inactive) | – | 0.239 µM (active) | > 100 µM (inactive) | > 100 µM (inactive) | > 100 µM (inactive) | 51.3 µM (inactive) | 33.4 µM (inactive) | 33.1 µM (inactive) | 40 µM (inactive) | 86.1 µM (inactive) | 43.3 µM (inactive) | 34.2 µM (inactive) | 32.5 µM (inactive) | 72.9 µM (inactive) | 39.4 µM (inactive) | 71.6 µM (inactive) | 16.6 µM | > 100 µM (inactive) | 48.5 µM (inactive)
6 | CC(=O)NC(Cc1ccc(O)cc1)C(=O)O (stereo unspecified) | > 100 µM (inactive) | > 100 µM (inactive) | > 100 µM (inactive) | > 100 µM (inactive) | > 100 µM (inactive) | > 100 µM (inactive) | > 100 µM (inactive) | > 100 µM (inactive) | > 100 µM (inactive) | > 100 µM (inactive) | > 100 µM (inactive) | > 100 µM (inactive) | > 100 µM (inactive) | > 100 µM (inactive) | > 100 µM (inactive) | > 100 µM (inactive) | > 100 µM (inactive) | > 100 µM | > 100 µM (inactive) | –
7 | CC(=O)Oc1ccc(/C=C/C(=O)NCC(NC(=O)/C=C/c2ccc(OC(C)=O)c(OC(C)=O)c2)C(=O)O)cc1OC(C)=O (stereo unspecified) | > 100 µM (inactive) | > 100 µM (inactive) | > 100 µM (inactive) | > 100 µM (inactive) | – | > 100 µM (inactive) | > 100 µM (inactive) | > 100 µM (inactive) | 97.3 µM (inactive) | > 100 µM (inactive) | > 100 µM (inactive) | > 100 µM (inactive) | > 100 µM (inactive) | 20.1 µM (inactive) | > 100 µM (inactive) | > 100 µM (inactive) | > 100 µM (inactive) | > 100 µM | > 100 µM (inactive) | > 100 µM (inactive)
8 | CN(O)C(=O)CCC(NC(=O)CCC(N)C(=O)O)C(=O)NCC(=O)O (stereo unspecified) | > 100 µM (inactive) | – | > 100 µM (inactive) | > 100 µM (inactive) | > 100 µM (inactive) | > 100 µM (inactive) | > 100 µM (inactive) | > 100 µM (inactive) | > 100 µM (inactive) | > 100 µM (inactive) | > 100 µM (inactive) | > 100 µM (inactive) | > 100 µM (inactive) | > 100 µM (inactive) | > 100 µM (inactive) | > 100 µM (inactive) | > 100 µM (inactive) | > 100 µM | > 100 µM (inactive) | > 100 µM (inactive)
9 | CC1(C)CC(=O)c2c(nc3c(ccc4ccccc43)c2-c2ccc(NC(=O)CCCC(=O)Nc3ccc(-c4c5c(nc6c4ccc4ccccc46)CC(C)(C)CC5=O)cc3)cc2)C1 | > 100 µM (inactive) | – | > 100 µM (inactive) | > 100 µM (inactive) | > 100 µM (inactive) | > 100 µM (inactive) | > 100 µM (inactive) | > 100 µM (inactive) | > 100 µM (inactive) | > 100 µM (inactive) | > 100 µM (inactive) | – | > 100 µM (inactive) | > 100 µM (inactive) | > 100 µM (inactive) | > 100 µM (inactive) | > 100 µM (inactive) | 46.5 µM | > 100 µM (inactive) | > 100 µM (inactive)
10 | Cc1ccc(O)c(C(c2ccc(C(c3cc(C)ccc3O)c3cc(C)ccc3O)cc2)c2cc(C)ccc2O)c1 | 1.98 µM (inactive) | 1.88 µM (inactive) | 1.56 µM (inactive) | 1.67 µM (inactive) | 1.68 µM (inactive) | 1.33 µM (inactive) | 1.67 µM (inactive) | 1.67 µM (inactive) | 1.69 µM (inactive) | 2.39 µM (inactive) | 1.25 µM (inactive) | 1.71 µM (inactive) | – | 2.9 µM (inactive) | 1.82 µM (inactive) | 1.52 µM (inactive) | 1.7 µM (inactive) | 1.8 µM | 1.85 µM (inactive) | 1.75 µM (inactive)
11 | CC(C)(CO)CNc1cc(Cl)nc(N)n1 | > 100 µM (inactive) | > 100 µM (inactive) | > 100 µM (inactive) | > 100 µM (inactive) | – | > 100 µM (inactive) | > 100 µM (inactive) | > 100 µM (inactive) | > 100 µM (inactive) | > 100 µM (inactive) | > 100 µM (inactive) | > 100 µM (inactive) | > 100 µM (inactive) | > 100 µM (inactive) | > 100 µM (inactive) | – | > 100 µM (inactive) | > 100 µM | > 100 µM (inactive) | > 100 µM (inactive)
12 | COC(OC)[C@@H]1OC[C@H](n2cnc3c(N)ncnc32)[C@H]1O | > 100 µM (inactive) | – | > 100 µM (inactive) | > 100 µM (inactive) | > 100 µM (inactive) | > 100 µM (inactive) | > 100 µM (inactive) | > 100 µM (inactive) | > 100 µM (inactive) | > 100 µM (inactive) | > 100 µM (inactive) | > 100 µM (inactive) | > 100 µM (inactive) | > 100 µM (inactive) | > 100 µM (inactive) | 5.06 µM (inactive) | > 100 µM (inactive) | > 100 µM | > 100 µM (inactive) | > 100 µM (inactive)
13 | CC1(C)OC(=O)CC12CCN(Cc1ccccc1)CC2 | > 100 µM (inactive) | > 100 µM (inactive) | > 100 µM (inactive) | > 100 µM (inactive) | > 100 µM (inactive) | > 100 µM (inactive) | > 100 µM (inactive) | > 100 µM (inactive) | > 100 µM (inactive) | > 100 µM (inactive) | > 100 µM (inactive) | > 100 µM (inactive) | – | > 100 µM (inactive) | – | > 100 µM (inactive) | > 100 µM (inactive) | > 100 µM | > 100 µM (inactive) | > 100 µM (inactive)
14 | COC(=O)C1C(O)C(C)C(O)C(C)(O)C=C(C)C2=C3C(=C(C)C(=O)c4c(O)c(c(C)c(OC(C)=O)c43)NC(=O)C(C)=C/C=C\C(C)(O)C(O)C(C)C1O)OCO2 (stereo unspecified) | > 100 µM (inactive) | 33.7 µM (inactive) | – | > 100 µM (inactive) | > 100 µM (inactive) | 24.4 µM (inactive) | 88.9 µM (inactive) | 35.5 µM (inactive) | 35.3 µM (inactive) | > 100 µM (inactive) | 32.5 µM (inactive) | 53.8 µM (inactive) | > 100 µM (inactive) | 67.6 µM (inactive) | 40.8 µM (inactive) | > 100 µM (inactive) | 33.9 µM (inactive) | > 100 µM | 28.9 µM (inactive) | > 100 µM (inactive)
